Reference: ChEMBL document CHEMBL4387741, “Optimization of novel reversible Bruton's tyrosine kinase inhibitors identified using Tethering-fragment-based screens” (Bioorg Med Chem, 2019)

Columns and labels:
[1] = system: Phosphatidylinositol 4,5-bisphosphate 3-kinase catalytic subunit alpha isoform (Homo sapiens), P42336 [Q546K]; assay: Inhibition of human partial length PIK3CA Q546K mutant (R108 to N1068 residues) expressed in mammalian expression system at 1 uM by Kinomescan method relative to control
[2] = target: Mitogen-activated protein kinase 9 (Homo sapiens) (UniProt P45984); assay: Inhibition of wild-type human full length JNK2 (M1 to Q382 residues) expressed in mammalian expression system at 1 uM by Kinomescan method relative to control
[3] = target: NUAK family SNF1-like kinase 1 (Homo sapiens) (UniProt O60285); assay: Inhibition of wild-type human partial length ARK5 (E25 to I332 residues) expressed in bacterial expression system at 1 uM by Kinomescan method relative to control
[4] = target: Bone morphogenetic protein receptor type-1B (Homo sapiens) (UniProt O00238); assay: Inhibition of wild-type human partial length BMPR1B (D178 to L502 residues) expressed in mammalian expression system at 1 uM by Kinomescan method relative to control
[5] = target: Serine/threonine-protein kinase LATS1 (Homo sapiens) (UniProt O95835); assay: Inhibition of wild-type human partial length LATS1 (Q678 to V1130 residues) expressed in bacterial expression system at 1 uM by Kinomescan method relative to control
[6] = target: Dual specificity testis-specific protein kinase 1 (Homo sapiens) (UniProt Q15569); assay: Inhibition of wild-type human full length TESK1 (R37 to S626 residues) expressed in bacterial expression system at 1 uM by Kinomescan method relative to control
[7] = system: Epidermal growth factor receptor (Homo sapiens), P00533 [L861Q]; assay: Inhibition of human partial length EGFR L861Q mutant (R669 to V1011 residues) expressed in bacterial expression system at 1 uM by Kinomescan method relative to control
[8] = target: Rho-associated protein kinase 2 (Homo sapiens) (UniProt O75116); assay: Inhibition of wild-type human partial length ROCK2 (M1 to T431 residues) expressed in mammalian expression system at 1 uM by Kinomescan method relative to control
[9] = target: Serine/threonine-protein kinase Nek1 (Homo sapiens) (UniProt Q96PY6); assay: Inhibition of wild-type human partial length NEK1 (M1 to K278 residues) expressed in bacterial expression system at 1 uM by Kinomescan method relative to control
[10] = target: Serine/threonine-protein kinase PAK 5 (Homo sapiens) (UniProt Q9P286); assay: Inhibition of wild-type human partial length PAK7 (Y400 to H719 residues) expressed in bacterial expression system at 1 uM by Kinomescan method relative to control
[11] = target: Ribosomal protein S6 kinase alpha-3 (Homo sapiens) (UniProt P51812); assay: Inhibition of wild-type human partial length C-terminal RSK2 kinase domain 2 (V402 to S715 residues) expressed in mammalian expression system at 1 uM by Kinomescan method relative to control
[12] = target: Proto-oncogene tyrosine-protein kinase ROS (Homo sapiens) (UniProt P08922); assay: Inhibition of wild-type human partial length ROS1 (A1921 to N2240 residues) expressed in bacterial expression system at 1 uM by Kinomescan method relative to control
[13] = target: Bone morphogenetic protein receptor type-2 (Homo sapiens) (UniProt Q13873); assay: Inhibition of wild-type human partial length BMPR2 (R179 to Q526 residues) expressed in mammalian expression system at 1 uM by Kinomescan method relative to control
[14] = target: Serine/threonine-protein kinase Nek5 (Homo sapiens) (UniProt Q6P3R8); assay: Inhibition of wild-type human partial length NEK5 (M1 to M279 residues) expressed in bacterial expression system at 10 uM by Kinomescan method relative to control
[15] = target: Interferon-induced, double-stranded RNA-activated protein kinase (Homo sapiens) (UniProt P19525); assay: Inhibition of wild-type human partial length PRKR (F247 to C551 residues) expressed in bacterial expression system at 10 uM by Kinomescan method relative to control
[16] = system: Epidermal growth factor receptor (Homo sapiens), P00533 [G719S]; assay: Inhibition of human partial length EGFR G719S mutant (R669 to V1011 residues) expressed in bacterial expression system at 10 uM by Kinomescan method relative to control
[17] = target: Serine/threonine-protein kinase RIO1 (Homo sapiens) (UniProt Q9BRS2); assay: Inhibition of wild-type human full length RIOK1 (M1 to K568 residues) expressed in bacterial expression system at 10 uM by Kinomescan method relative to control
[18] = target: Serine/threonine-protein kinase/endoribonuclease IRE1 (Homo sapiens) (UniProt O75460); assay: Inhibition of wild-type human partial length ERN1 (S551 to E852 residues) expressed in mammalian expression system at 10 uM by Kinomescan method relative to control
[19] = target: High affinity nerve growth factor receptor (Homo sapiens) (UniProt P04629); assay: Inhibition of wild-type human partial length TRKA (G475 to G790 residues) expressed in mammalian expression system at 10 uM by Kinomescan method relative to control
[20] = target: Megakaryocyte-associated tyrosine-protein kinase (Homo sapiens) (UniProt P42679); assay: Inhibition of wild-type human full length CTK (M43 to P508 residues) expressed in mammalian expression system at 10 uM by Kinomescan method relative to control
[21] = target: Cyclin-dependent kinase 18 (Homo sapiens) (UniProt Q07002); assay: Inhibition of wild-type human full length PCTK3 (M3 to F474 residues) expressed in bacterial expression system at 10 uM by Kinomescan method relative to control
[22] = target: Dual specificity protein kinase CLK3 (Homo sapiens) (UniProt P49761); assay: Inhibition of wild-type human full length CLK3 (M1 to R490 residues) expressed in bacterial expression system at 10 uM by Kinomescan method relative to control
[23] = target: Serine/threonine-protein kinase pim-1 (Homo sapiens) (UniProt P11309); assay: Inhibition of wild-type human partial length PIM1 (A15 to K313 residues) expressed in bacterial expression system at 10 uM by Kinomescan method relative to control
[24] = target: Serine/threonine-protein kinase N1 (Homo sapiens) (UniProt Q16512); assay: Inhibition of wild-type human partial length PKN1 (E598 to C948 residues) expressed in bacterial expression system at 10 uM by Kinomescan method relative to control
[25] = target: Ephrin type-B receptor 1 (Homo sapiens) (UniProt P54762); assay: Inhibition of wild-type human partial length EPHB1 (P589 to T911 residues) expressed in bacterial expression system at 10 uM by Kinomescan method relative to control
[26] = target: Mitogen-activated protein kinase kinase kinase 1 (Homo sapiens) (UniProt Q13233); assay: Inhibition of wild-type human partial length MAP3K1 (L1202 to W1512 residues) expressed in mammalian expression system at 10 uM by Kinomescan method relative to control

`O=C(Nc1cccc([C@@H]2CN(c3ncnc4[nH]ccc34)CCN2CCO)c1)Nc1c(F)cccc1N1CCCC1` was tested. Which inhibition [1] did it give?
The inhibition was 89%.

What about the inhibition [2] of the same compound?
Its inhibition is 100%.

What about the inhibition [3] of the same compound?
The inhibition was 45%.

And the inhibition [4]?
Its inhibition is 63%.

And the inhibition [5]?
The inhibition was 52%.

And the inhibition [6]?
The inhibition was 100%.

What about the inhibition [7] of the same compound?
The inhibition was 81%.

And the inhibition [8]?
The inhibition was 67%.

And the inhibition [9]?
The inhibition was 100%.

What about the inhibition [10] of the same compound?
The inhibition was 98%.

What about the inhibition [11] of the same compound?
Its inhibition is 100%.

And the inhibition [12]?
Its inhibition is 97%.

And the inhibition [13]?
Its inhibition is 91%.

What does the source list for `O=C(Nc1cccc([C@H]2CCCN(c3ncnc4[nH]ccc34)C2)c1)Nc1ccccc1N1CCCC1`?
inhibition [14]: 100%; inhibition [15]: 87%; inhibition [16]: 81%; inhibition [17]: 0%; inhibition [18]: 45%; inhibition [19]: 26%; inhibition [20]: 85%; inhibition [21]: 70%; inhibition [22]: 87%; inhibition [23]: 84%; inhibition [24]: 100%; inhibition [25]: 100%; inhibition [26]: 39%
